{
  "source": "ChEMBL document CHEMBL1158187",
  "about": "“Five novel mono-tetrahydrofuran ring acetogenins from the seeds of Annona muricata” (J Nat Prod, 1996)",
  "key": {"[1]": {"tested_on": "Agrobacterium tumefaciens", "experiment": "Inhibition of growth of crown gall tumors in Agrobacterium tumefaciens with tumor-inducing plasmid on potato disk", "format": "functional"}, "A549": {"tested_on": "A549", "experiment": "Cytotoxicity against human A549 cells", "format": "functional, cell-based"}, "MCF7": {"tested_on": "MCF7", "experiment": "Cytotoxicity against human MCF7 cells", "format": "functional, cell-based"}, "HT-29": {"tested_on": "HT-29", "experiment": "Cytotoxicity against human HT29 cells", "format": "functional, cell-based"}, "[2]": {"experiment": "Toxicity in Artemia salina", "format": "organism-based", "conditions": "in vivo"}},
  "data": [
    {"smiles": "CCCCCCCCCCCC[C@@H]1OCO[C@H](CCC[C@H](O)CCCCC[C@@H](O)CC2=C[C@H](C)OC2=O)[C@@H]2CC[C@@H]1O2", "values": [
      {"measurement": "inhibition (INH)", "setting": "[1]", "value": 22, "unit": "%"},
      {"measurement": "IC50", "setting": "A549", "value": 0.079, "unit": "µg/mL"},
      {"measurement": "IC50", "setting": "MCF7", "value": 2.6, "unit": "µg/mL"},
      {"measurement": "IC50", "setting": "HT-29", "value": 2.1, "unit": "µg/mL"}
    ]},
    {"smiles": "CCCCCCCCCCCCCC[C@@H](O)[C@H]1CC[C@H]([C@H](O)CC[C@H](O)CCCCC[C@@H](O)CC2=C[C@H](C)OC2=O)O1", "note": "[GONIOTHALAMICIN]", "values": [
      {"measurement": "LC50", "setting": "[2]", "value": 0.6, "unit": "µg/mL"},
      {"measurement": "IC50", "setting": "A549", "value": 0.008, "unit": "µg/mL"},
      {"measurement": "IC50", "setting": "MCF7", "value": 0.057, "unit": "µg/mL"},
      {"measurement": "IC50", "setting": "HT-29", "value": 0.0011, "unit": "µg/mL"}
    ]},
    {"smiles": "CCCCCCCCCCCC[C@H](O)[C@@H]1CC[C@H]([C@H](O)CCCC[C@H](O)CCCCC[C@@H](O)CC2=C[C@H](C)OC2=O)O1", "values": [
      {"measurement": "LC50", "setting": "[2]", "value": 2.3, "unit": "µg/mL"},
      {"measurement": "inhibition (INH)", "setting": "[1]", "value": 28, "unit": "%"},
      {"measurement": "IC50", "setting": "A549", "value": 0.23, "unit": "µg/mL"},
      {"measurement": "IC50", "setting": "MCF7", "value": 1.18, "unit": "µg/mL"}
    ]},
    {"smiles": "CCCCCCCCCCCC[C@H](O)[C@@H]1CC[C@H]([C@H](O)CCCCC(=O)CCCCC[C@@H](O)CC2=C[C@H](C)OC2=O)O1", "values": [
      {"measurement": "LC50", "setting": "[2]", "value": 1.8, "unit": "µg/mL"},
      {"measurement": "inhibition (INH)", "setting": "[1]", "value": 32, "unit": "%"},
      {"measurement": "IC50", "setting": "A549", "value": 0.35, "unit": "µg/mL"},
      {"measurement": "IC50", "setting": "MCF7", "value": 0.29, "unit": "µg/mL"},
      {"measurement": "IC50", "setting": "HT-29", "value": 0.0009, "unit": "µg/mL"}
    ]},
    {"smiles": "CCCCCCCCCCCCCC[C@H](O)[C@@H]1CC[C@H]([C@H](O)CC[C@H](O)CCCCC[C@@H](O)CC2=C[C@H](C)OC2=O)O1", "values": [
      {"measurement": "LC50", "setting": "[2]", "value": 5.2, "unit": "µg/mL"},
      {"measurement": "inhibition (INH)", "setting": "[1]", "value": 47, "unit": "%"},
      {"measurement": "IC50", "setting": "A549", "value": 0.13, "unit": "µg/mL"},
      {"measurement": "IC50", "setting": "MCF7", "value": 1.05, "unit": "µg/mL"},
      {"measurement": "IC50", "setting": "HT-29", "value": 0.0053, "unit": "µg/mL"}
    ]},
    {"smiles": "COc1cccc2c1C(=O)c1c(O)c3c(c(O)c1C2=O)C[C@@](O)(C(=O)CO)C[C@@H]3O[C@H]1C[C@H](N)[C@H](O)[C@H](C)O1", "note": "[DOXORUBICIN]", "values": [
      {"measurement": "IC50", "setting": "A549", "value": 0.0004, "unit": "µg/mL"},
      {"measurement": "IC50", "setting": "HT-29", "value": 0.00051, "unit": "µg/mL"}
    ]},
    {"smiles": "CCCCCCCCCCCC[C@@H](O)[C@H]1CC[C@H]([C@H](O)CC[C@H](O)CCCCCCC[C@@H](O)CC2=C[C@H](C)OC2=O)O1", "note": "[JAVORICIN]", "values": [
      {"measurement": "LC50", "setting": "[2]", "value": 4.9, "unit": "µg/mL"},
      {"measurement": "inhibition (INH)", "setting": "[1]", "value": 47, "unit": "%"},
      {"measurement": "IC50", "setting": "A549", "value": 0.017, "unit": "µg/mL"},
      {"measurement": "IC50", "setting": "MCF7", "value": 0.23, "unit": "µg/mL"},
      {"measurement": "IC50", "setting": "HT-29", "value": 1.8, "unit": "µg/mL"}
    ]},
    {"smiles": "CCCCCCCCCCCCCC[C@H](O)[C@@H]1CC[C@H]([C@H]2CC[C@@H](CCCCC[C@@H](O)CC3=C[C@H](C)OC3=O)OCO2)O1", "values": [
      {"measurement": "inhibition (INH)", "setting": "[1]", "value": 21, "unit": "%"},
      {"measurement": "IC50", "setting": "A549", "value": 0.53, "unit": "µg/mL"},
      {"measurement": "IC50", "setting": "MCF7", "value": 0.52, "unit": "µg/mL"},
      {"measurement": "IC50", "setting": "HT-29", "value": 2.6, "unit": "µg/mL"}
    ]},
    {"smiles": "CCCCCCCCCCCCCC[C@@H](O)[C@H]1CC[C@H]([C@H]2CC[C@@H](CCCCC[C@@H](O)CC3=C[C@H](C)OC3=O)OCO2)O1", "note": "[GONIOTHALAMICIN FORMAL]", "values": [
      {"measurement": "IC50", "setting": "A549", "value": 0.025, "unit": "µg/mL"},
      {"measurement": "IC50", "setting": "MCF7", "value": 1.03, "unit": "µg/mL"},
      {"measurement": "IC50", "setting": "HT-29", "value": 1.13, "unit": "µg/mL"}
    ]},
    {"smiles": "CCCCCCCCCCCC[C@@H](O)[C@H]1CC[C@H]([C@H]2CC[C@H](CCCCCCC[C@@H](O)CC3=C[C@H](C)OC3=O)OCO2)O1", "note": "[ARIANACIN FORMAL]", "values": [
      {"measurement": "inhibition (INH)", "setting": "[1]", "value": 28, "unit": "%"},
      {"measurement": "IC50", "setting": "A549", "value": 0.02, "unit": "µg/mL"},
      {"measurement": "IC50", "setting": "MCF7", "value": 8.5, "unit": "µg/mL"},
      {"measurement": "IC50", "setting": "HT-29", "value": 1, "unit": "µg/mL"}
    ]},
    {"smiles": "CCCCCCCCCCCC[C@@H](O)[C@H]1CC[C@H]([C@H](O)CC[C@@H](O)CCCCCCC[C@@H](O)CC2=C[C@H](C)OC2=O)O1", "note": "[ARIANACIN]", "values": [
      {"measurement": "LC50", "setting": "[2]", "value": 7.1, "unit": "µg/mL"},
      {"measurement": "inhibition (INH)", "setting": "[1]", "value": 26, "unit": "%"},
      {"measurement": "IC50", "setting": "A549", "value": 0.0047, "unit": "µg/mL"},
      {"measurement": "IC50", "setting": "MCF7", "value": 0.4, "unit": "µg/mL"},
      {"measurement": "IC50", "setting": "HT-29", "value": 4.4, "unit": "µg/mL"}
    ]},
    {"smiles": "CCCCCCCCCCCC[C@@H](O)[C@H]1CC[C@H]([C@H]2CC[C@@H](CCCCCCC[C@@H](O)CC3=C[C@H](C)OC3=O)OCO2)O1", "note": "[JAVORICIN FORMAL]", "values": [
      {"measurement": "inhibition (INH)", "setting": "[1]", "value": 31, "unit": "%"},
      {"measurement": "IC50", "setting": "A549", "value": 0.02, "unit": "µg/mL"},
      {"measurement": "IC50", "setting": "MCF7", "value": 2.9, "unit": "µg/mL"},
      {"measurement": "IC50", "setting": "HT-29", "value": 5.6, "unit": "µg/mL"}
    ]}
  ]
}
